One assay has as its system HPCs. The assay can be described thus: NK cell production from HPCs treated with SR8278 and/or cultured on rDLL4 (flow cytometry). The class given is cell-based, mouse. The note with it: SR8278 on day 2 of culture, no rDLL4; average of triplicate experiments. On the procedure:
HPCs were cultured in four sets of conditions in addition to control (non-treated) conditions: (i) treated with SR8278 on day 2 of culture (no recombinant DLL4, rDLL4); (ii) cultured on rDLL4 (no SR8278); (iii) cultured on rDLL4 and treated with SR8278 on day 0 of culture; or (iv) treated with SR8278 on day 0 of culture, cultured on rDLL4 from day 2. Aside from the different treatments, the culture conditions were otherwise identical to those previously described for NK cell production from HPCs.
This experiment was repeated with an expanded set of culture conditions, as set out in FIG. 13. The results of this duplicate experiment are illustrated in FIG. 14.
Lineage negative HPCs were purified from mouse bone marrow by crushing the leg bones in Phosphate-buffered Saline (PBS) with 2% fetal calf serum (FCS) (STEMCELL Technologies), topped up to 40 ml with magnetic-activated cell sorting (MACS) buffer (PBS, 2 mM EDTA, 0.5% BSA, sterile and filtered) and centrifuged at 800 g for 2 minutes. […]
(§1) Cells to be analysed by flow cytometry were passed through 40 μm cell strainers to remove clumps and washed with PBS buffer, centrifuged at 800 g for 2 minutes and resuspended in 100 μl fluorescent activated cell sorting (FACS) buffer (PBS plus 1% BSA) with appropriate fluorochrome conjugated antibodies at a dilution of 1 in 300. […]
(A flow cytometer gives signals particle by particle.)

The next assay concerns HPC culture. The note with it: previously demonstrated, cited from earlier work.
The test system of another assay is human HPCs. The note with it: human HPCs cultured in vitro; previously demonstrated; cited from earlier work.
In another assay the test system is E4bp4. The settings on record: cited from earlier work.
Another assay concerns E4bp4−/− Lin− BM cells. The assay can be described thus: NK cell development from E4bp4−/− Lin− BM cells on rDLL1/rDLL4-coated plates. The class given is cell-based, mouse. The settings on record: plates coated with 10 μg/ml ligand, first 7 days of culture, then IL-15. On the procedure:
As E4bp4 appeared to regulate Notch1 expression, it was speculated that enhanced Notch signalling, at an early stage, could potentially affect the development of NK cells from E4bp4^−/− HPCs. To study NK cell development from HPCs in the presence or absence of Notch signalling, Lin^− BM cells were cultured on either OP9 stromal cells or OP9-DL1 cells (that express the Notch ligand delta-like 1) (FIG. 10C). Subsequently, cells were transferred onto fresh OP9 and cultured in the presence of IL-15 (FIG. 11A). When E4bp4^−/− cells were grown on control OP9, no NK cell development was observed, but when the E4bp4^−/− cells were grown on OP9-DL1 for the first part of the culture, remarkably, NK cell development was rescued (FIG. 11B). The same result was not observed when the cells were grown on OP9-DL1 for the second part of the culture (FIG. 11B). To eliminate the influence of stromal cells, tissue culture plates were coated with either recombinant delta-like ligand 1 (rDLL1) or rDLL4 protein. […]
as §1

As for `CCOC(=O)C1Cc2ccccc2CN1C(=O)c1ccc(SC)s1` (stereo not drawn) [SR8278, 1,2,3,4-Tetrahydro-2-[[5-(methylthio)-2-thienyl]carbonyl]-3-isoquinolinecarboxylic acid ethyl ester], the “% of NK cells produced” value with HPCs came out at 57.5%. Besides, the “Optimum dose for in vitro NK cell production” value in the assay with HPC culture (added to the HPC culture, optimum time Day 2) was 10 µM. For the same molecule, the “Increase of production of NK cells” value in the assay on HPC culture (upon administration of SR8278) is on record as “more than 2 fold”. For the same molecule, in the assay on human HPCs, the “Human NK cell development” value was “significantly increase”. Also, in the assay on E4bp4, the E4bp4 expression entry is reported as “increased”.

B1: rDLL1: recombinant delta-like ligand 1 protein (R&D Systems), coated on culture plates (protein, UniProt O00548 18-723, looked up)
Delta-like protein 1: QVWSSGVFELKLQEFVNKKGLLGNRNCCRGGAGPPPCACRTFFRVCLKHYQASVSPEPPCTYGSAVTPVLGVDSFSLPDGGGADSAFSNPIRFPFGFTWPGTFSLIIEALHTDSPDDLATENPERLISRLATQRHLTVGEEWSQDLHSSGRTDLKYSYRFVCDEHYYGEGCSVFCRPRDDAFGHFTCGERGEKVCNPGWKGPYCTEPICLPGCDEQHGFCDKPGECKCRVGWQGRYCDECIRYPGCLHGTCQQPWQCNCQEGWGGLFCNQDLNYCTHHKPCKNGATCTNTGQGSYTCSCRPGYTGATCELGIDECDPSPCKNGGSCTDLENSYSCTCPPGFYGKICELSAMTCADGPCFNGGRCSDSPDGGYSCRCPVGYSGFNCEKKIDYCSSSPCSNGAKCVDLGDAYLCRCQAGFSGRHCDDNVDDCASSPCANGGTCRDGVNDFSCTCPPGYTGRNCSAPVSRCEHAPCHNGATCHERGHRYVCECARGYGGPNCQFLLPELPPGPAVVDLTEKLEGQGGPFPWVAVCAGVILVLMLLLGCAAVVVCVRLRLQKHRPPADPCRGETETMNNLANCQREKDISVSIIGATQIKNTNKKADFHGDHSADKNGFKARYPAVDYNLVQDLKGDDTAVRDAHSKRDTKCQPQGSSGEEKGTPTTLRGGEASERKRPDSGCSTSKDTKYQSVYVISEEKDECVIATEV
For the molecule B1, the “Rescue of NK cell production in the absence of E4bp4” value with E4bp4−/− Lin− BM cells is “Only a very partial rescue”.

The values above are taken from patent publication US11566226B2, “Natural killer cells” (Imperial College of Science, Technology and Medicine, priority 2017, dated 2023).
